Measurements: the NIST ThermoML archive (doi:10.1021/je060415l)
Numbers after ± are expanded uncertainties.

Conditions: Liquid, expansion method

CO [methanol]
Conditions	isothermal compressibility
208.17 K, 390 kPa	7.15e-07 ± 4.1e-08 1/kPa
208.17 K, 2110 kPa	6.78e-07 ± 4e-08 1/kPa
208.17 K, 5020 kPa	6.63e-07 ± 4e-08 1/kPa
208.17 K, 7970 kPa	6.47e-07 ± 3.9e-08 1/kPa
208.17 K, 10910 kPa	6.37e-07 ± 3.9e-08 1/kPa
208.17 K, 13880 kPa	6.24e-07 ± 3.9e-08 1/kPa
208.17 K, 16980 kPa	6.12e-07 ± 3.9e-08 1/kPa
208.17 K, 20090 kPa	6.02e-07 ± 3.8e-08 1/kPa
208.17 K, 23230 kPa	5.9e-07 ± 3.8e-08 1/kPa
208.17 K, 30160 kPa	5.68e-07 ± 3.8e-08 1/kPa
208.17 K, 33540 kPa	5.57e-07 ± 3.8e-08 1/kPa
208.17 K, 37190 kPa	5.46e-07 ± 3.7e-08 1/kPa
208.17 K, 41120 kPa	5.34e-07 ± 3.7e-08 1/kPa
208.17 K, 45130 kPa	5.26e-07 ± 3.7e-08 1/kPa
208.17 K, 49210 kPa	5.15e-07 ± 3.7e-08 1/kPa
208.17 K, 53370 kPa	5.04e-07 ± 3.7e-08 1/kPa
208.17 K, 57610 kPa	4.95e-07 ± 3.6e-08 1/kPa
208.17 K, 61920 kPa	4.85e-07 ± 3.6e-08 1/kPa
208.17 K, 66300 kPa	4.78e-07 ± 3.6e-08 1/kPa
208.17 K, 70740 kPa	4.7e-07 ± 3.6e-08 1/kPa
208.17 K, 75250 kPa	4.6e-07 ± 3.6e-08 1/kPa
208.17 K, 79850 kPa	4.53e-07 ± 3.6e-08 1/kPa
208.17 K, 84300 kPa	4.48e-07 ± 3.6e-08 1/kPa
208.17 K, 88600 kPa	4.41e-07 ± 3.6e-08 1/kPa
208.17 K, 92960 kPa	4.35e-07 ± 3.6e-08 1/kPa
208.17 K, 97910 kPa	4.18e-07 ± 3.5e-08 1/kPa
223.17 K, 1060 kPa	7.59e-07 ± 4.2e-08 1/kPa
223.17 K, 3160 kPa	7.44e-07 ± 4.1e-08 1/kPa
223.17 K, 5540 kPa	7.28e-07 ± 4.1e-08 1/kPa
223.17 K, 8010 kPa	7.14e-07 ± 4.1e-08 1/kPa
223.17 K, 10640 kPa	7.01e-07 ± 4e-08 1/kPa
223.17 K, 13500 kPa	6.84e-07 ± 4e-08 1/kPa
223.17 K, 16660 kPa	6.62e-07 ± 4e-08 1/kPa
223.17 K, 19820 kPa	6.59e-07 ± 4e-08 1/kPa
223.17 K, 22850 kPa	6.45e-07 ± 3.9e-08 1/kPa
223.17 K, 25930 kPa	6.33e-07 ± 3.9e-08 1/kPa
223.17 K, 29040 kPa	6.2e-07 ± 3.9e-08 1/kPa
223.17 K, 32210 kPa	6.08e-07 ± 3.9e-08 1/kPa
223.17 K, 35450 kPa	5.98e-07 ± 3.8e-08 1/kPa
223.17 K, 38770 kPa	5.87e-07 ± 3.8e-08 1/kPa
223.17 K, 42230 kPa	5.74e-07 ± 3.8e-08 1/kPa
223.17 K, 45780 kPa	5.66e-07 ± 3.8e-08 1/kPa
223.17 K, 49400 kPa	5.55e-07 ± 3.8e-08 1/kPa
223.17 K, 53080 kPa	5.45e-07 ± 3.7e-08 1/kPa
223.17 K, 56960 kPa	5.3e-07 ± 3.7e-08 1/kPa
223.17 K, 61040 kPa	5.23e-07 ± 3.7e-08 1/kPa
223.17 K, 65060 kPa	5.15e-07 ± 3.7e-08 1/kPa
223.17 K, 69050 kPa	5.06e-07 ± 3.7e-08 1/kPa
223.17 K, 73000 kPa	4.98e-07 ± 3.7e-08 1/kPa
223.17 K, 76980 kPa	4.9e-07 ± 3.6e-08 1/kPa
223.17 K, 81110 kPa	4.82e-07 ± 3.6e-08 1/kPa
223.17 K, 85330 kPa	4.72e-07 ± 3.6e-08 1/kPa
223.17 K, 89630 kPa	4.66e-07 ± 3.6e-08 1/kPa
223.17 K, 94200 kPa	4.54e-07 ± 3.6e-08 1/kPa
223.17 K, 98850 kPa	4.51e-07 ± 3.6e-08 1/kPa
248.19 K, 1680 kPa	8.6e-07 ± 4.4e-08 1/kPa
248.19 K, 4590 kPa	8.53e-07 ± 4.4e-08 1/kPa
248.19 K, 7250 kPa	8.36e-07 ± 4.4e-08 1/kPa
248.19 K, 9880 kPa	8.18e-07 ± 4.3e-08 1/kPa
248.19 K, 12580 kPa	8.01e-07 ± 4.3e-08 1/kPa
248.19 K, 15470 kPa	7.74e-07 ± 4.2e-08 1/kPa
248.19 K, 18450 kPa	7.62e-07 ± 4.2e-08 1/kPa
248.19 K, 21360 kPa	7.48e-07 ± 4.2e-08 1/kPa
248.19 K, 24330 kPa	7.3e-07 ± 4.1e-08 1/kPa
248.19 K, 27310 kPa	7.19e-07 ± 4.1e-08 1/kPa
248.19 K, 30180 kPa	7.07e-07 ± 4.1e-08 1/kPa
248.19 K, 33000 kPa	6.92e-07 ± 4e-08 1/kPa
248.19 K, 35670 kPa	6.84e-07 ± 4e-08 1/kPa
248.19 K, 38600 kPa	6.64e-07 ± 4e-08 1/kPa
248.19 K, 41780 kPa	6.56e-07 ± 4e-08 1/kPa
248.19 K, 44760 kPa	6.45e-07 ± 3.9e-08 1/kPa
248.19 K, 47880 kPa	6.33e-07 ± 3.9e-08 1/kPa
248.19 K, 51230 kPa	6.19e-07 ± 3.9e-08 1/kPa
248.19 K, 54640 kPa	6.09e-07 ± 3.9e-08 1/kPa
248.19 K, 57930 kPa	5.99e-07 ± 3.8e-08 1/kPa
248.19 K, 61270 kPa	5.85e-07 ± 3.8e-08 1/kPa
248.19 K, 64800 kPa	5.75e-07 ± 3.8e-08 1/kPa
248.19 K, 68310 kPa	5.66e-07 ± 3.8e-08 1/kPa
248.19 K, 71740 kPa	5.57e-07 ± 3.8e-08 1/kPa
248.19 K, 75070 kPa	5.49e-07 ± 3.7e-08 1/kPa
248.19 K, 78410 kPa	5.41e-07 ± 3.7e-08 1/kPa
248.19 K, 81890 kPa	5.31e-07 ± 3.7e-08 1/kPa
248.19 K, 85380 kPa	5.25e-07 ± 3.7e-08 1/kPa
248.19 K, 88990 kPa	5.18e-07 ± 3.7e-08 1/kPa
248.19 K, 92540 kPa	5.18e-07 ± 3.7e-08 1/kPa
248.19 K, 96400 kPa	5e-07 ± 3.7e-08 1/kPa
248.19 K, 100840 kPa	4.9e-07 ± 3.6e-08 1/kPa
263.17 K, 1420 kPa	9.64e-07 ± 4.7e-08 1/kPa
263.17 K, 3920 kPa	9.42e-07 ± 4.6e-08 1/kPa
263.17 K, 6360 kPa	9.2e-07 ± 4.6e-08 1/kPa
263.17 K, 8840 kPa	9.02e-07 ± 4.5e-08 1/kPa
263.17 K, 11360 kPa	8.82e-07 ± 4.5e-08 1/kPa
263.17 K, 13920 kPa	8.62e-07 ± 4.4e-08 1/kPa
263.17 K, 16580 kPa	8.42e-07 ± 4.4e-08 1/kPa
